Among the data in article PMC11645267, “Novel pharmacologic inhibition of lysine-specific demethylase 1 as a potential therapeutic for glioblastoma” (Cancer Gene Therapy, 2024) are IC50 and Ki values, retold here.

One may read the pIC50 as the negative decadic logarithm of the IC50, by convention in mol/L. By pKi is commonly meant the Ki on a negative log10 scale, so that one unit is a factor of ten.

pIC50, pKi: −log10 of the molar value.

One experiment deals with TM31. Put plainly: Cell proliferation assay (Cell Counting Kit 8). The class given is cell-based. The following applies: 96 h; TM31 (grade III glioma), 4 days; read-out: Growth inhibitory IC50 (GI50). The source says:
(§1) Supplementary materials and methods […]
(§2) Cell lines and culture conditions
(§3) Glioblastoma cell line, LN229, was obtained from the American Type Culture Collection (ATCC, Manassas, VA, USA). Normal fibroblast cell lines TIG3 and WI-38, TM31 (low grade glioma) were obtained from the RIKEN Bioresource Research Center (Tsukuba, Japan). Onda10 and KINGS1 (low grade glioma) cell lines were obtained from the Japanese Collection of Research Bioresources (Ibaraki, Japan). F3 is utilized as a neural stem cell line{Kim, 2004 #1412}{Natsume, 2013 #1009}. All cells were maintained in DMEM medium (Wako, Osaka, Japan) containing 5% fetal bovine serum (FBS, Thermo Fisher Scientific, Waltham, MA, USA) and 1% penicillin-streptomycin (Wako). […]
(§4) For the cell proliferation assay, cells at a density of 1 × 10^5 cells per well were seeded before treatment with LSD1 inhibitors. Cell proliferation was measured after 4 days using a Cell Counting Kit 8 (Dojindo, Kumamoto, Japan) according to the manufacturer ’s […]
(§5) instructions. For GSC cells, the CellTiter-Glo 3D Viability Assay (Promega, Madison, WI, USA) was used to measure the living cells. […]
On the technique in general: Formazan colour is commonly taken as a measure of viable cells.

In the next experiment the test system is F3. Put plainly: Cell proliferation assay (Cell Counting Kit 8). The following applies: 96 h; F3 (normal neural stem cell line), 4 days; read-out: Growth inhibitory IC50 (GI50). The class given is cell-based.
Source text: as §1, §2, §3, §4, §5

The test system of the next experiment is LN229. Kind of experiment: Cell proliferation assay (Cell Counting Kit 8). The experiment is classed as cell-based. The following applies: Homo sapiens, LN-229, 96 h; LN229 (GBM cell line), 4 days; read-out: Growth inhibitory IC50 (GI50).
Source text: as §1, §2, §3, §4, §5

In a further experiment the test system is KINGS1. Kind of experiment: Cell proliferation assay (Cell Counting Kit 8). The class given is cell-based. To be noted: Homo sapiens, KINGS-1, 96 h; KINGS1 (grade III glioma), 4 days; read-out: Growth inhibitory IC50 (GI50).
Source text: as §1, §2, §3, §4, §5

In the next experiment the test system is Onda10. Kind of experiment: Cell proliferation assay (Cell Counting Kit 8). The class given is cell-based. The following applies: 96 h; Onda10 (grade III glioma), 4 days; read-out: Growth inhibitory IC50 (GI50).
Source text: as §1, §2, §3, §4, §5

The test system of a further experiment is WI38. Kind of experiment: Cell proliferation assay (Cell Counting Kit 8). The class given is cell-based. To be noted: Homo sapiens, WI-38, 96 h; WI38 (normal fibroblast), 4 days; read-out: Growth inhibitory IC50 (GI50).
Source text: as §1, §2, §3, §4, §5

The next experiment concerns TIG3. Kind of experiment: Cell proliferation assay (Cell Counting Kit 8). The following applies: Homo sapiens, TIG-3, 96 h; TIG3 (normal fibroblast), 4 days; read-out: Growth inhibitory IC50 (GI50). The experiment is classed as cell-based.
Source text: as §1, §2, §3, §4, §5

A further experiment concerns GSC222. Put plainly: Cell proliferation assay (CellTiter-Glo 3D). The experiment is classed as cell-based. The following applies: GSC222, 96 h; read-out: Growth inhibitory IC50 (GI50). The method, then:
as §1
(§6) Cell lines and culture conditions […]
(§7) 2013 #1009}{Katsushima, 2016 #1156}. GSC cells were cultured in Neurobasal Medium (Life Technologies, Carlsbad, CA, USA) containing N2 and B27 supplements (Life Technologies) along with human recombinant basic fibroblast growth factor and epidermal growth factor (20 ng/ml each; R&D Systems, Minneapolis, MN, USA). Cells were cultured at 37°C in a humidified incubator with 5% CO2.
as §4, §5

The test system of a further experiment is GSC316. Put plainly: Cell proliferation assay (CellTiter-Glo 3D). The experiment is classed as cell-based. To be noted: GSC316, 96 h; read-out: Growth inhibitory IC50 (GI50). The method, then: as §1, §6, §7, §4, §5
(In ATP-based viability assays light output follows the ATP content of the culture.)

The next experiment relates to GSC1228. Put plainly: Cell proliferation assay (CellTiter-Glo 3D). The experiment is classed as cell-based. To be noted: GSC1228, 96 h; read-out: Growth inhibitory IC50 (GI50). Here is the method:
as §1, §6, §7, §4, §5

For a further experiment, the target named is T1, MAO-A (Homo sapiens, UniProt P21397).
T1 sequence (P21397 1-527): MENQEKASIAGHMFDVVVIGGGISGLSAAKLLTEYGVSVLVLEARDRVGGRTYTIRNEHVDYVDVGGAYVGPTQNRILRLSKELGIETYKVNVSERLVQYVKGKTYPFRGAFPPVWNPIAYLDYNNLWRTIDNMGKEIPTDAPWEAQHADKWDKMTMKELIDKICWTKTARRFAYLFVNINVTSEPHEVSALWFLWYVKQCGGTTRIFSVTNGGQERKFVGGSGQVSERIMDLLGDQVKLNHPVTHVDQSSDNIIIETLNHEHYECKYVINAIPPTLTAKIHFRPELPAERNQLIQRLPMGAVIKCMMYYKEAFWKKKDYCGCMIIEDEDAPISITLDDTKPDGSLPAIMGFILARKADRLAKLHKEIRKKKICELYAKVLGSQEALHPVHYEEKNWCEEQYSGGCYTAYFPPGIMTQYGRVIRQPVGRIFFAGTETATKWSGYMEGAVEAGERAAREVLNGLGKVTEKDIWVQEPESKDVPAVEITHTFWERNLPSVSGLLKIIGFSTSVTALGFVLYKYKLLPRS
The following applies: cited from earlier work.

For another experiment, the target named is T2, MAO-B (Homo sapiens, UniProt P27338).
T2 sequence (P27338 1-520): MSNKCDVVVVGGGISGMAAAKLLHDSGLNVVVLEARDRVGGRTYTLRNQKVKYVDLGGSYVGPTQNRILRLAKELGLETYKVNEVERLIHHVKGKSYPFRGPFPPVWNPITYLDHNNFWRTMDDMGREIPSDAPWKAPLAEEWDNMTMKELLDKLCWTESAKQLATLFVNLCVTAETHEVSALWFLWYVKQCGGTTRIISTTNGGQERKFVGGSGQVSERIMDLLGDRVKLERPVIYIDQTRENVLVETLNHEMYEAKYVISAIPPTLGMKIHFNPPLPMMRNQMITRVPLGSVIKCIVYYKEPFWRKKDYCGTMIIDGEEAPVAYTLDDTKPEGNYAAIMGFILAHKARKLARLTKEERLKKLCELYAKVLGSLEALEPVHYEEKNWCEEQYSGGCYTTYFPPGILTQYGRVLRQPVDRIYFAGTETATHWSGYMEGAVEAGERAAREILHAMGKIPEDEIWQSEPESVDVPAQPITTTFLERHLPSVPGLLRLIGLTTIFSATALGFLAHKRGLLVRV
The following applies: cited from earlier work.

Another experiment deals with T3, LSD2 (Homo sapiens, UniProt Q8NB78).
T3 sequence (Q8NB78 1-822): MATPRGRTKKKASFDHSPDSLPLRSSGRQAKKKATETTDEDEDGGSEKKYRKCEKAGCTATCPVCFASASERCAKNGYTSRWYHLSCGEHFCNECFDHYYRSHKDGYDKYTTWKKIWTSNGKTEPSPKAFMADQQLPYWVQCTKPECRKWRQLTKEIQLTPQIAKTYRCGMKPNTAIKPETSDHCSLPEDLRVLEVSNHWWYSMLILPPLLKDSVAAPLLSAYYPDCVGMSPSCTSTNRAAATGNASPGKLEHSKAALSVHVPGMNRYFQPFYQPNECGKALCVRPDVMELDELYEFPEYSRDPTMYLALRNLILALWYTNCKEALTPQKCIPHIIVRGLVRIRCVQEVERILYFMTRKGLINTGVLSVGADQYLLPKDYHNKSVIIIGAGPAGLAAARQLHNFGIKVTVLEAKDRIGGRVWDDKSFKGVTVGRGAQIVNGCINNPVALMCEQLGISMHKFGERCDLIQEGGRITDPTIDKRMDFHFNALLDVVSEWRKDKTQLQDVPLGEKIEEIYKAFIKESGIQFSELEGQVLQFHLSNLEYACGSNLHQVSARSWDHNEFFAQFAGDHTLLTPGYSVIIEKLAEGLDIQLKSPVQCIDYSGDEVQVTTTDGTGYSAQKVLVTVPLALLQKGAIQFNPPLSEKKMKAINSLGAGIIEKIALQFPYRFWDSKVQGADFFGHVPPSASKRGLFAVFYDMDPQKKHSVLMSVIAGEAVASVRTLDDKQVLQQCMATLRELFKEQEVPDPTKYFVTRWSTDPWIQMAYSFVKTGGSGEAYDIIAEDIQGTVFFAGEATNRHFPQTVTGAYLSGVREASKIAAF
Also noted: method as in PMID 32166890. To be noted: cited from earlier work.

With `CN1CCN(C(=O)CNC2CC2c2cc(F)cc(F)c2OCc2ccccc2)CC1` (stereo not drawn) [S2157], the pIC50 with TM31 was 4.57; in the experiment on F3, 4.44; in the experiment with LN229, below 4.40; with KINGS1, below 4.40; in the experiment on Onda10 it was below 4.40; in the experiment with WI38, below 4.40. Moreover, the negative logarithm of the IC50 (pIC50) in the experiment on TIG3 is 4.48; in the experiment with GSC222, below 4.40; in the experiment with GSC316 it was below 4.40; in the experiment on GSC1228, 4.71. Besides, the pKi at MAO-A, at MAO-B and on LSD2 was below 3.60 throughout.

For the compound `NC1CC1c1cc(F)cc(F)c1OCc1ccccc1` (stereo not drawn) [S2101], the pIC50 in the experiment on TM31 was 5.16; in the experiment with F3, 4.59; in the experiment on LN229, 4.92; with KINGS1, 4.72; in the experiment on Onda10 it was 4.60; with WI38, below 4.40. Also, the pIC50 in the experiment on TIG3, in the experiment on GSC222, in the experiment on GSC316 and in the experiment on GSC1228 was below 4.40 each time. The pKi on LSD2 was below 3.60.
